In data set [1] the test system is mouse. The settings on record: Combined chronic toxicity/carcinogenicity, b6c3f1, Oral, Feed, dose end: 24 month, group: systemic.
The test system of data set [2] is mouse. The settings on record: Subchronic oral toxicity in rodents, b6c3f1, Feed, dose end: 13 week, group: systemic.
The test system of data set [3] is mouse. The settings on record: Subchronic oral toxicity in rodents, Feed, dose end: 13 week, group: systemic, systemic / in life observation / body weight / body weight.
Data set [4] deals with rat. As to conditions: Developmental neurotoxicity range-finding study; sprague dawley; Oral; Feed; group: cannot be grouped; developmental / offspring survival late / [other] / [other] + systemic / in life observation / body weight / litter weight.
Data set [5] concerns dog. The settings on record: Chronic toxicity, beagle, Oral, Feed, dose end: 53 week, group: systemic.
Data set [6] relates to dog. The settings on record: Subchronic oral toxicity in nonrodent, beagle, Gavage/Intubation, dose end: 18 week, group: systemic, systemic / in life observation / body weight / body weight + systemic / in life observation / clinical signs / ataxia + systemic / in life ….
In data set [7] the test system is rat. As to conditions: Developmental neurotoxicity study; sprague dawley; Oral; Gavage/Intubation; dose end: 63 PND; group: cannot be grouped; systemic / in life observation / body weight / offspring (pup) weight.
For data set [8], the system named is mouse. The settings on record: Chronic toxicity; b6c3f1; Oral; Feed; dose end: 80 week; group: systemic; systemic / in life observation / clinical signs / alopecia + systemic / in life observation / clinical signs / distended abdomens + systemic….
Data set [9] has as its system rat. The settings on record: Subchronic oral toxicity in rodents, other, Feed, dose end: 6 week, group: systemic, systemic / in life observation / body weight / body weight + systemic / in life observation / mortality / mortality.
Data set [10] concerns mouse. As to conditions: Subchronic oral toxicity in rodents, b6c3f1, Feed, dose end: 6 week, group: systemic, systemic / in life observation / mortality / mortality.
Data set [11] concerns rat. As to conditions: Chronic toxicity; other; Oral; Feed; dose end: 74 week; group: systemic; systemic / in life observation / body weight / body weight + systemic / in life observation / clinical signs / convulsions + systemic / in ….
The test system of data set [12] is rat. The settings on record: Subchronic oral toxicity in rodents, sprague dawley, Feed, dose end: 13 week, group: systemic, systemic / clinical chemistry / aspartate aminotransferase (ast/sgot) / aspartate aminotransferase (ast/sgot) + systemic / clinical ….
Data set [13] concerns rat. As to conditions: Combined chronic toxicity/carcinogenicity, sprague dawley, Oral, Feed, dose end: 2 year, group: systemic.
In data set [14] the test system is rat. As to conditions: Multigenerational reproductive toxicity study, sprague dawley, Oral, Feed, dose end: 2 generation.
Data set [15] concerns rat. As to conditions: Combined chronic toxicity/carcinogenicity, sprague dawley, Oral, Feed, dose end: 2 year, group: systemic. The source holds these as a separate data set.
For data set [16], the system named is mouse. The settings on record: Combined chronic toxicity/carcinogenicity, cd1, Oral, Feed, dose end: 18 month, group: systemic.
Data set [17] relates to dog. The settings on record: Subchronic oral toxicity in nonrodent, beagle, Capsule, dose end: 93 day, group: systemic.
Data set [18] concerns rat. As to conditions: Prenatal developmental toxicity study, sprague dawley, Oral, Gavage/Intubation, dose end: 15 GD.
In data set [19] the test system is rat. As to conditions: Combined chronic toxicity/carcinogenicity, fischer, Oral, Feed, dose end: 104 week, group: systemic.
In data set [20] the test system is dog. The settings on record: Chronic toxicity; beagle; Oral; Capsule; dose end: 52 week; group: systemic; systemic / in life observation / clinical signs / defecation (diarrhea) + systemic / in life observation / clinical signs / vomitting + ….
In data set [21] the test system is mouse. The settings on record: Carcinogenicity, cd1, Oral, Feed, dose end: 78 week, group: systemic.
The subject of data set [22] is rat. As to conditions: Subchronic oral toxicity in rodents, fischer, Feed, dose end: 90 day, group: systemic.
The mark [23] stands for this setting: systemic / pathology microscopic / kidney / vacuolization.
The mark [24] stands for this setting: systemic / pathology microscopic / kidney / vacuolization + systemic / in life observation / body weight / body weight + systemic / ….
Setting [25] is: systemic / in life observation / body weight / body weight.
[26] abbreviates: systemic / in life observation / clinical signs / pupillary function (dilation or constriction).
Where [27] appears, read: systemic / in life observation / clinical signs / pupillary function (dilation or constriction) + systemic / clinical chemistry / protein / ….
The mark [28] stands for this setting: systemic / organ weight / liver / relative to body weight + systemic / organ weight / thyroid gland / absolute + systemic / pathology gross….
The mark [29] stands for this setting: group: offspring, systemic / in life observation / body weight / offspring (pup) weight.
[30] abbreviates: group: parental, systemic / in life observation / body weight / body weight gain + systemic / in life observation / food consumption / food consumption + ….
Where [31] appears, read: group: reproductive, reproductive / offspring survival early / litter size / litter size.
Where [32] appears, read: systemic / organ weight / liver / relative to body weight.
Setting [33] is: systemic / organ weight / liver / relative to body weight + systemic / clinical chemistry / cholesterol / cholesterol.
Where [34] appears, read: systemic / in life observation / clinical signs / amyloidosis + systemic / organ weight / brain / relative to brain weight + systemic / ….
Where [35] appears, read: systemic / organ weight / liver / relative to brain weight + systemic / organ weight / gallbladder / relative to brain weight.
Where [36] appears, read: systemic / in life observation / clinical signs / defecation (diarrhea) + systemic / in life observation / clinical signs / vomitting + ….
Setting [37] is: group: developmental, developmental / developmental malformation / bone / full supernumerary.
The mark [38] stands for this setting: group: maternal, systemic / in life observation / body weight / body weight gain + systemic / in life observation / water consumption / water consumption.
The mark [39] stands for this setting: group: maternal, systemic / in life observation / body weight / body weight gain + systemic / in life observation / water consumption / water consumption + ….
[40] abbreviates: systemic / clinical chemistry / creatine phosphokinase / creatine phosphokinase + systemic / organ weight / liver / absolute + systemic / ….
The mark [41] stands for this setting: systemic / pathology microscopic / stomach / dysplasia.
The mark [42] stands for this setting: systemic / in life observation / body weight / body weight gain + systemic / organ weight / brain / relative to body weight + systemic / ….
Where [43] appears, read: systemic / organ weight / liver / relative to body weight + systemic / clinical chemistry / beta globulin / beta globulin + systemic / ….

SMILES strings stand for the structures.

Turning to `O=C(O)c1cccc(Cl)n1` [6-Chloro-2-picolinic acid], the results for the NOAEL in data set [1] (setting [23]), in data set [2] (setting [24]) and in data set [3] were 300 mg/kg/day, 700 mg/kg/day and 400 mg/kg/day, respectively. For the same compound, the LOAEL came to 900 mg/kg/day in data set [1] (systemic / pathology microscopic / kidney / vacuolization + systemic / in life observation / body weight / body weight), 900 mg/kg/day in data set [2] (setting [23]) and 800 mg/kg/day in data set [3]. Also, the LEL in data set [1] (setting [24]) stood at 900 mg/kg/day; in data set [2] (setting [25]) it was 400 mg/kg/day; in data set [3] it was 800 mg/kg/day. Besides, the NEL in data set [1] (systemic / pathology microscopic / liver / carcinoma + systemic / organ weight / liver / absolute + systemic / organ weight / liver / …) was determined as 300 mg/kg/day; in [2] (setting [25]), 150 mg/kg/day; in data set [3], 400 mg/kg/day.

In the case of `CC[C@H](C)[C@H]1O[C@]2(C=C[C@@H]1C)C[C@@H]1C[C@@H](C/C=C(\C)[C@@H](O[C@H]3C[C@H](OC)[C@@H](O[C@H]4C[C@H](OC)[C@@H](O)[C@H](C)O4)[C@H](C)O3)[C@@H](C)/C=C/C=C3\CO[C@@H]4[C@H](O)C(C)=C[C@@H](C(=O)O1)[C@]34O)O2.CO[C@H]1C[C@H](O[C@H]2[C@H](C)O[C@@H](O[C@@H]3/C(C)=C/C[C@@H]4C[C@@H](C[C@]5(C=C[C@H](C)[C@@H](C(C)C)O5)O4)OC(=O)[C@@H]4C=C(C)[C@@H](O)[C@H]5OC/C(=C\C=C\[C@@H]3C)[C@]54O)C[C@@H]2OC)O[C@@H](C)[C@@H]1O` [Abamectin], the LEL came out at 0.876 mg/kg/day in data set [4], 0.5 mg/kg/day in [5] (setting [26]), 0.5 mg/kg/day in data set [6] and 0.4 mg/kg/day in data set [7]. The LOAEL in data set [4] was 0.876 mg/kg/day; in data set [5] (setting [26]) it was 0.5 mg/kg/day; in [6], 0.5 mg/kg/day; in data set [7], 0.4 mg/kg/day. The NEL in [4] was 0.604 mg/kg/day; in data set [5] (setting [27]) it was 0.25 mg/kg/day; in [6] it was 0.25 mg/kg/day; in [7], 0.2 mg/kg/day. The NOAEL in [4] stood at 0.604 mg/kg/day; in [5] (setting [27]) it was 0.25 mg/kg/day; in data set [6] it was 0.25 mg/kg/day; in data set [7], 0.2 mg/kg/day.

With `ClC1=C(Cl)[C@]2(Cl)[C@H]3[C@H]([C@@H]4C=C[C@H]3C4)[C@@]1(Cl)C2(Cl)Cl` [Aldrin], in data set [8], the LEL is 0.45 mg/kg/day, the LOAEL is above 0.9 mg/kg/day, the NEL is below 0.45 mg/kg/day and the NOAEL is at least 0.9 mg/kg/day. Further, in [9], the LEL amounted to 8 mg/kg/day, the LOAEL is above 16 mg/kg/day, the NEL stood at 4 mg/kg/day and the NOAEL is at least 16 mg/kg/day. In data set [10], this compound yielded an LEL of 6 mg/kg/day, an LOAEL above 12 mg/kg/day, an NEL of 3 mg/kg/day and an NOAEL of at least 12 mg/kg/day. In data set [11], the LEL came to 1.5 mg/kg/day, the lowest-observed-adverse-effect level (LOAEL) was 1.5 mg/kg/day, the NEL is below 1.5 mg/kg/day and the NOAEL is below 1.5 mg/kg/day.

In the case of `CCC(CC)Nc1c([N+](=O)[O-])cc(C)c(C)c1[N+](=O)[O-]` [Pendimethalin], the LEL in data set [12] stood at 7.6 mg/kg/day; in [13] (systemic / in life observation / body weight / body weight gain + systemic / pathology gross / liver / accentuated lobular pattern), 25 mg/kg/day; in data set [14] (setting [29]), 215 mg/kg/day; in data set [14] (setting [30]), 173 mg/kg/day; in data set [14] (setting [31]), 215 mg/kg/day; in data set [15] (setting [33]), 51 mg/kg/day. Moreover, the LEL in data set [16] (setting [35]) amounted to 12.3 mg/kg/day. Further, the LOAEL was 382 mg/kg/day in data set [12]; above 250 mg/kg/day in data set [13] (setting [28]); 215 mg/kg/day in data set [14] (setting [29]); 173 mg/kg/day in [14] (setting [30]); 215 mg/kg/day in [14] (setting [31]); 51 mg/kg/day in [15] (setting [32]). In addition, the LOAEL in data set [16] (setting [34]) is 622 mg/kg/day. Besides, the NEL in data set [12] is below 7.6 mg/kg/day; in [13] (systemic / pathology microscopic / thyroid gland / adenoma + systemic / clinical chemistry / albumin / albumin + systemic / clinical …), 5 mg/kg/day; in data set [14] (setting [29]), 42 mg/kg/day; in [14] (setting [30]), 36 mg/kg/day; in data set [14] (setting [31]), 42 mg/kg/day; in data set [15] (setting [33]), below 51 mg/kg/day. For the same compound, in [16] (setting [35]), the NEL is below 12.3 mg/kg/day. Moreover, the NOAEL is 39.2 mg/kg/day in data set [12]; at least 250 mg/kg/day in [13] (setting [28]); 42 mg/kg/day in [14] (setting [29]); 36 mg/kg/day in [14] (setting [30]); 42 mg/kg/day in [14] (setting [31]); below 51 mg/kg/day in data set [15] (setting [32]). In addition, in data set [16] (setting [34]), the NOAEL was 62.3 mg/kg/day.

On to `CCc1nn(C)c(C(=O)NCc2ccc(C(C)(C)C)cc2)c1Cl` [Tebufenpyrad], for which the LOAEL in data set [17] (systemic / in life observation / clinical signs / defecation (diarrhea) + systemic / in life observation / clinical signs / vomitting) turned out to be 10 mg/kg/day; in [18] (setting [37]) it was 90 mg/kg/day; in data set [18] (setting [38]) it was 50 mg/kg/day; in [19] (systemic / organ weight / liver / absolute + systemic / organ weight / liver / relative to body weight + systemic / clinical chemistry / …) it was 6.52 mg/kg/day; in [20] it was 6 mg/kg/day; in data set [21] (systemic / in life observation / body weight / body weight gain) it was 64.4 mg/kg/day. Further, in data set [22] (setting [42]), the LOAEL worked out at 29 mg/kg/day. The LEL in data set [17] (setting [36]) is 10 mg/kg/day; in data set [18] (setting [37]), 90 mg/kg/day; in data set [18] (setting [38]) it was 50 mg/kg/day; in data set [19] (setting [40]) it was 0.21 mg/kg/day; in data set [20], 6 mg/kg/day; in [21] (setting [41]), 4.2 mg/kg/day. Moreover, in data set [22] (setting [43]), the LEL was found to be 0.7 mg/kg/day. In addition, the NEL in data set [17] (setting [36]) is 2 mg/kg/day; in data set [18] (setting [37]) it was 50 mg/kg/day; in data set [18] (setting [39]), 15 mg/kg/day; in data set [19] (setting [40]), below 0.21 mg/kg/day; in data set [20], 1 mg/kg/day; in data set [21] (setting [41]), below 4.2 mg/kg/day. Moreover, the NEL in [22] (setting [43]) was below 0.7 mg/kg/day. Besides, the NOAEL in data set [17] (setting [36]) was 2 mg/kg/day; in data set [18] (setting [37]), 50 mg/kg/day; in [18] (setting [39]), 15 mg/kg/day; in data set [19] (setting [40]), 0.82 mg/kg/day; in [20], 1 mg/kg/day; in data set [21] (systemic / in life observation / body weight / body weight gain + systemic / in life observation / body weight / body weight + systemic / …), 3.6 mg/kg/day. In data set [22] (setting [42]), the NOAEL was 6.8 mg/kg/day.

These data come from EPA's ToxRefDB 2.
